In US20090012152A1, “Use of Tetramic Acid Derivatives for Controlling Insects from the Genus of the Plane Lice (Sternorrhyncha)” (Bayer CropScience Aktiengesellschaft, priority 2005, published 2009):

Assays:
Type in all cases: in vivo
Paratrioza cockerelli = assay: Example 9: tomatoes treated against Paratrioza cockerelli; conditions: nymphs on leaves, g a.i./ha: Levarage 81, I-4 48
Method: In three replications, plots of a size of 10 m^2 with tomatoes are treated against Paratrioza cockerelli. Application is carried out using a knapsack sprayer operated with pressurized air. Here, the active compound Example (I-4) (240 SC) in a tank mix with 0.2% a.i. of rapeseed oil methyl ester (500 EW) and the commercial standard Leverage (324 SE) are tested at the stated application rates. There are two applications at an interval of 7 days. The application rate is 345 l of water/ha.
Evaluation is carried out 7, 14 and 21 days after the first treatment by rating the kill of the animals (nymphs) on the leaves.

Pulvinaria aurantii = assay: Example 11: satsuma trees treated against Pulvinaria aurantii; conditions: 41 days after treatment; live animals counted, Henderson and Tilton; satsuma tree; % a.i.: buprofezin 0.025, I-4 0.0144
Method: In three replications, in each case one about 4-year-old satsuma tree of the cultivar “Nankan 20” is treated against Pulvinaria aurantii. Here, the active compound Example (I-4) (240 SC) in a tank mix with 0.2% of rapeseed oil methyl ester (500 EW) at the stated application rate is tested against the commercial standard buprofezin at the stated application rate. The application is carried out using a motor-operated knapsack sprayer. Here, each plant is treated with 400 ml of spray liquor.
(§1) Evaluation is carried out before and 41 days after the treatment by counting the live animals. The efficacy in percent is then calculated according to Henderson and Tilton.

Ceroplastes rubens = assay: Example 12: satsuma trees treated against Ceroplastes rubens; conditions: 41 days after treatment; live animals counted, Henderson and Tilton; satsuma tree; % a.i.: buprofezin 0.025, I-4 0.0072
Method: In three replications, in each case one about 4-year-old satsuma tree of the cultivar “Nankan 20” is treated against Ceroplastes rubens. Here, the active compound Example (I-4) (240 SC) in a tank mix with 0.1% of rapeseed oil methyl ester (500 EW) at the stated application rate is tested against the commercial standard buprofezin (25 WP) at the stated application rate. The application is carried out using a motor-operated knapsack sprayer. Here, treatment is carried out using an application rate of 400 l of water/ha.
as §1

[1] = tested on: Quadraspidiotus perniciosus; assay: Example 17: apple trees treated against San Jose scale louse; conditions: 43 days after last of two treatments, on shoots, g a.i./ha/m crown height: Dursban 223, I-4 72
Method: In three replications, four about 18-year-old apple trees of the cultivar “Red Chief” are treated against the San Jose scale louse Quadraspidiotus perniciosus. Two applications are carried out at an interval of 15 days using a motor-operated barrow-mounted sprayer. Here, the active compound Example (I-4) (240 SC) is applied in a tank mix with 0.2% a.i. of rapeseed oil methyl ester (500 EW) at the stated application rate and the commercial standard Dursban (446 EC) is applied at the stated application rate. The application rate is 1500 l of water/ha.
Evaluation is carried out 43 days after the last treatment by rating the kill on the shoots.

Aspidiotus neri = assay: Example 20: lime trees treated against Aspidiotus neri; conditions: 167 d after treatment, on fruits, % a.i.: Dursban 0.096, Juvinal 0.005, I-4 0.0072
Method: In four replications, about 5-year-old lime trees of the cultivar “Fino” are treated against Aspidiotus neri. The application is carried out using a knapsack sprayer. Here, the active compound Example (I-4) (240 SC) in a tank mix with 0.1% a.i. of rapeseed oil methyl ester (500 EW) at the stated application rate is tested against the standards Dursban (480 EC) and Juvinal (100 EC) at the stated amounts, applied once. The application rate is 3000 l of water/ha per tree.
Evaluation is carried out 167 days after the treatment by rating the kill on the fruits.

Bemisia argentifolii [2] = assay: Example 36: aubergine plants (Ryoma) treated against Bemisia argentifolii; conditions: nymphs on leaves, % a.i.: pymetrozine 0.0125, I-4 0.072, I-8 0.06
Method: In three replications, in each case four aubergine plants of the cultivar “Ryoma” are treated against Bemisia argentifolii. The application is carried out using a motor-operated knapsack sprayer. Here, the active compounds Example (I-4) and Example (I-8), in a tank mix with 0.2% a.i. of rapeseed oil methyl ester (500 EW), and the commercial standard pymetrozine (25 WP) are tested at the stated application rates. The application rate is 3200 l of water/ha.
Evaluation is carried out 13, 20 and 27 days after the treatment by rating the kill of the nymphs on the leaves.

Bemisia argentifolii [3] = assay: Example 37: cantaloupe melons treated against Bemisia argentifolii; conditions: nymphs on leaves, g a.i./ha: endosulfan 1120, I-4 48
Method: In four replications, plots of a size of about 39 m^2 with cantaloupe melons of the cultivar “Western Shipper” are treated against Bemisia argentifolii. The application is carried out using a knapsack sprayer operated with pressurized air. Here, the active compound Example (I-4) (240 SC), in a tank mix with 0.2 a.i. of rapeseed oil methyl ester (500 EW), and the commercial standard endosulfan (360 EC) are tested at the stated application rates. Two applications are carried out at an interval of 16 days. The application rate is 187 l of water/ha.
Evaluation is carried out 5, 13, 21 and 29 days after the first treatment by rating the kill of the animals (nymphs) on the leaves.

Aulacorthum solani = assay: Example 46: head lettuce treated against Aulacorthum solani; conditions: nymphs on plants, g a.i./ha: endosulfan 1120, I-4 48
Method: In four replications, plots of a size of about 33 m^2 with head lettuce of the cultivar “PIC 714” are treated against Aulacorthum solani, Macrosiphum euphorbiae and Myzus persicae. The application is carried out using a tractor sprayer. Here, the active compound Example (I-4) (240 SC), in a tank mix with 0.2% a.i. of rapeseed oil methyl ester (500 EW), is tested against the commercial standard endosulfan (360 EC), at the stated application rates. The application rate is 187 l of water/ha. Two treatments are carried out, at an interval of 22 days.
Evaluation is carried out 8, 22, 30 and 40 days after the first treatment by rating the kill of the nymphs on the plants.

[4] = 21 d after first of two treatments

CCOC(=O)OC1=C(c2cc(C)ccc2C)C(=O)NC12CCC(OC)CC2 (stereo not drawn) [Example (I-4)]
Kill (%) 7 d (Paratrioza cockerelli; 7 d after first of two treatments): 71.3% | Kill (%) 14 d (Paratrioza cockerelli; 14 d after first of two treatments): 90.3% | Kill (%) 21 d (Paratrioza cockerelli; [4]): 95.5% | Effect (%) (Pulvinaria aurantii): 100% | Effect (%) (Ceroplastes rubens): 98% | Kill (%) [1]: 90.4% | Kill (%) 167 d (Aspidiotus neri): 96.2% | Kill (%) 13 d (Bemisia argentifolii [2]; 13 d after treatment): 99.6% | Kill (%) 20 d (Bemisia argentifolii [2]; 20 d after treatment): 100% | Kill (%) 27 d (Bemisia argentifolii [2]; 27 d after treatment): 97% | Kill (%) 5 d (Bemisia argentifolii [3]; 5 d after first of two treatments): 100% | Kill (%) 13 d (Bemisia argentifolii [3]; 13 d after first of two treatments): 100% | Kill (%) 21 d (Bemisia argentifolii [3]; [4]): 98.1% | Kill (%) 29 d (Bemisia argentifolii [3]; 29 d after first of two treatments): 90.5% | Kill (%) 8 d (Aulacorthum solani; 8 d after first of two treatments): 100% | Kill (%) 22 d (Aulacorthum solani; 22 d after first of two treatments): 99% | Kill (%) 30 d (Aulacorthum solani; 30 d after first of two treatments): 79% | Kill (%) 40 d (Aulacorthum solani; 40 d after first of two treatments): 87%
